Series [1] has as its system PC-3. The experiment in a line: Antiproliferative activity against human PC-3 cells assessed as cell growth inhibition incubated for 48 hrs by MTT assay. In kind it is functional. (Tetrazolium dyes change colour on reduction, which living cells bring about.)
The test system of series [2] is DU-145. The experiment in a line: Antiproliferative activity against human DU-145 cells assessed as cell growth inhibition incubated for 48 hrs by MTT assay. Format: functional.
Series [3] can be described thus: Toxicity in athymic nude mouse xenografted with human DU-145 cells assessed as change in body weight at 100 to 200 mg/kg, po administered every 2 days and measured upto 60 days. In kind it is organism-based. The settings on record: in vivo, 1440 h, dose 100-200 mg/kg, time < 60 day.
Series [4] is described as follows: Toxicity in athymic nude mouse xenografted with human DU-145 cells assessed as change in body weight at 50 mg/kg, po qd measured upto 60 days. Format: organism-based. The settings on record: in vivo, 1440 h, time < 60 day. Background: In xenograft studies the graft and the host belong to different species.
The subject of series [5] is DU-145. The experiment in a line: Antitumor activity against human DU-145 cells xenografted in athymic nude mouse assessed as tumor growth inhibition at 20 mg/kg, ip administered every 4 days for 5 doses and measured upto 60 days by caliper method relative to control. In kind it is functional. The settings on record: DU-145, 1440 h, time <= 60 day, read-out: TGI.
The nature of series [6]: Toxicity in athymic nude mouse xenografted with human PC-3 cells assessed as change in body weight at 20 mg/kg, ip administered every 4 days for 4 doses and measured upto 25 days. In kind it is organism-based. As to conditions: in vivo, 600 h, time < 25 day.
Series [7] is described as follows: Toxicity in athymic nude mouse xenografted with human PC-3 cells assessed as change in body weight at 50 to 100 mg/kg, po qd measured upto 25 days. In kind it is organism-based. The settings on record: in vivo, 600 h, dose 50-100 mg/kg, time < 25 day.
A short description of series [8]: Toxicity in athymic nude mouse xenografted with human DU-145 cells assessed as change in body weight at 20 mg/kg, ip administered every 4 days for 5 doses and measured upto 60 days. As to conditions: in vivo, 1440 h, time < 60 day. In kind it is organism-based.
Series [9] concerns PC-3. The experiment in a line: Antitumor activity against human PC-3 cells xenografted in athymic nude mouse assessed as tumor growth inhibition at 20 mg/kg, ip administered every 4 days for 4 doses and measured upto 25 days by caliper method relative to control. In kind it is functional. The settings on record: PC-3, 600 h, time <= 25 day, read-out: TGI.
Series [10] deals with PC-3. The experiment in a line: Antiproliferative activity against human PC-3 cells assessed as cell growth inhibition at upto 10 uM. In kind it is functional, cell-based. As to conditions: time 48.0 hrs.

The values below come from ChEMBL document CHEMBL5096208, “Installation of Pargyline, a LSD1 Inhibitor, in the HDAC Inhibitory Template Culminated in the Identification of a Tractable Antiprostate Cancer Agent” (J Med Chem, 2021).

Active and inactive are the calls of the source. The calls are words filed in the database; no cut-off is given here. A value given as a limit tells only on which side of the number the result lay.

In general, GI50 refers to the concentration giving 50% growth inhibition. With `C[C@]12CC[C@H](O)CC1=CC[C@@H]1[C@@H]2CC[C@]2(C)C(c3cccnc3)=CC[C@@H]12` [ABIRATERONE], the GI50 with PC-3 [1] and in the series on DU-145 [2] was greater than 10 µM throughout.
Consider `C#CCN(C)Cc1cccc(NC(=O)CCCCC(=O)NO)c1`, for which the GI50 in the series with PC-3 [1] is 5.15 µM; with DU-145 [2] it was 9.75 µM.
For `C#CCN(C)Cc1ccc(NC(=O)CCCCCCCCC(=O)NO)cc1`, the GI50 in the series with PC-3 [1] amounted to 4.26 µM; in the series on DU-145 [2], 2.74 µM.
The corresponding values for `C#CCN(C)Cc1ccc(NC(=O)CCCCC(=O)NO)cc1` are greater than 10 µM and greater than 10 µM.
`C#CCN(C)Cc1cccc(NC(=O)CCC(=O)NO)c1`: the GI50 with PC-3 [1] and in the series on DU-145 [2] was greater than 10 µM in each case.
Consider `C#CCN(C)Cc1cccc(NC(=O)CCCCCCCCC(=O)NO)c1`, for which the GI50 with PC-3 [1] was determined as 1.79 µM; in the series on DU-145 [2] it was 2.94 µM.
On to `C#CCN(C)Cc1ccc(NC(=O)CCCCCCC(=O)NO)cc1`, for which the results for the GI50 in the series on PC-3 [1] and in the series with DU-145 [2] were 2.28 µM and 1.51 µM, respectively.
The corresponding values for `C#CCN(C)Cc1ccc(NS(=O)(=O)c2cccc(/C=C/C(=O)NO)c2)cc1` are 0.367 µM and 0.21 µM.
Turning to `C#CCN(C)Cc1ccc(NC(=O)CCCCCCCC(=O)NO)cc1`, the concentration for 50% growth inhibition (GI50) with PC-3 [1] worked out at 7.16 µM; with DU-145 [2] it was 3.4 µM.
As to `C#CCN(C)Cc1cccc(NCc2ccc(C(=O)NO)cc2)c1`, the GI50 with PC-3 [1] and in the series with DU-145 [2] was greater than 10 µM each time.
For `C#CCN(C)Cc1cccc(NC(=O)CCCCCCCC(=O)NO)c1`, the GI50 is 4.07 µM in the series on PC-3 [1] and 3.78 µM in the series on DU-145 [2].
In the case of `CNC(=O)c1ccc(N2C(=S)N(c3ccc(C#N)c(C(F)(F)F)c3)C(=O)C2(C)C)cc1F` [ENZALUTAMIDE], the 50% growth inhibitory concentration (GI50) with PC-3 [1] and in the series on DU-145 [2] was greater than 10 µM throughout.
As to `C#CCN(C)Cc1cccc(NC(=O)CCCC(=O)NO)c1`, the 50% growth inhibitory concentration (GI50) in the series with PC-3 [1] and in the series on DU-145 [2] was greater than 10 µM in each case.
Take `C#CCN(C)Cc1ccc(NC(=O)CCCC(=O)NO)cc1`: the 50% growth inhibitory concentration (GI50) in the series on PC-3 [1] and in the series on DU-145 [2] was greater than 10 µM each time.
On to `C#CCN(C)Cc1ccc(NC(=O)CCCCCC(=O)NO)cc1`, for which the GI50 in the series with PC-3 [1] and in the series with DU-145 [2] was greater than 10 µM throughout.
Consider `CC(=O)O[C@H]1C(=O)[C@@]2(C)[C@H]([C@H](OC(=O)c3ccccc3)[C@]3(O)C[C@H](OC(=O)[C@H](O)[C@@H](NC(=O)c4ccccc4)c4ccccc4)C(C)=C1C3(C)C)[C@]1(OC(C)=O)CO[C@@H]1C[C@@H]2O` [PACLITAXEL], for which the Activity entry in series [3], in series [4], in series [6], in series [7] and in series [8] was “Non-Toxic” each time. The inhibition in vivo at 20 mg/kg was 47% with DU-145 [5] and 47.8% in the series with PC-3 [9].
Consider `C#CCN(C)Cc1ccc(NC(=O)CCC(=O)NO)cc1`, for which the GI50 in the series with PC-3 [1] and in the series with DU-145 [2] was greater than 10 µM each time.
On to `Nc1ccccc1NC(=O)c1ccc(CCCC(=O)Nc2ccc([C@H]3C[C@@H]3N)cc2)cc1`, for which, in the series with PC-3 [10], the outcome was Active.
`C#CCN(C)Cc1ccc(NS(=O)(=O)c2ccc(/C=C/C(=O)NO)cc2)cc1`: the figures for the concentration for 50% growth inhibition (GI50) in the series on PC-3 [1] and in the series with DU-145 [2] were 0.71 µM and 0.96 µM, respectively.
The corresponding values for `C#CCN(C)Cc1ccc(NCc2ccc(/C=C/C(=O)NO)cc2)cc1` are 0.75 µM and 0.56 µM.
For `C#CCN(C)Cc1cccc(NCc2ccc(/C=C/C(=O)NO)cc2)c1`, in that order: 0.85 µM and 0.54 µM.
On to `Cn1cc(-c2ccc(S(=O)(=O)n3ccc(/C=C/C(=O)Nc4ccccc4N)c3)cc2)cn1`, for which the result in the series on PC-3 [10] was Active.
Take `C#CCN(C)Cc1ccc(NCc2ccc(C(=O)NO)cc2)cc1`: the concentration for 50% growth inhibition (GI50) in the series on PC-3 [1] and in the series with DU-145 [2] was greater than 10 µM each time.
On to `C#CCN(C)Cc1cccc(NS(=O)(=O)c2cccc(/C=C/C(=O)NO)c2)c1`, for which the GI50 in the series on PC-3 [1] came out at 1.23 µM; in the series on DU-145 [2], 0.21 µM.
With `C#CCN(C)Cc1cccc(NS(=O)(=O)c2ccc(/C=C/C(=O)NO)cc2)c1`, the GI50 with PC-3 [1] was determined as 2.23 µM; in the series on DU-145 [2], 2.35 µM.
As to `C#CCN(C)Cc1cccc(NC(=O)CCCCCC(=O)NO)c1`, the concentration for 50% growth inhibition (GI50) in the series with PC-3 [1] was 4.63 µM; with DU-145 [2], 4.29 µM.
For `C#CCN(C)Cc1ccccc1` [PARGYLINE], in that order: 197 µM and 219 µM.
